Assay results as given in ChEMBL document CHEMBL1909046, “DrugMatrix in vitro pharmacology data”.

Assays:
B2 bradykinin receptor = biological target: T1, B2 bradykinin receptor (Homo sapiens, UniProt P30411); format: cell membranes, Membrane; settings: chem-1; note: in other assays of this panel Not Active means under 50% inhibition at 10 µM
T1 sequence (P30411 whole entry): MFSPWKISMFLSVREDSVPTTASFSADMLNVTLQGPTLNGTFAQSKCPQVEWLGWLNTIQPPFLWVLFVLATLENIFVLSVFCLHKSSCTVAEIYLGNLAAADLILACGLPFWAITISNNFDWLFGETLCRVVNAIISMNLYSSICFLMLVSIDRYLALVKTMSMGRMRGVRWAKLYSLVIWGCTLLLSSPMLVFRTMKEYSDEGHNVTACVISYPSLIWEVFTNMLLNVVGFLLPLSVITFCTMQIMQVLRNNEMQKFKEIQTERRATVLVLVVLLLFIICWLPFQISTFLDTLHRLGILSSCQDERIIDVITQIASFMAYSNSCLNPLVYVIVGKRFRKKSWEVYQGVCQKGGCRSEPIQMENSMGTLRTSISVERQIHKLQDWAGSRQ

Calcitonin receptor = biological target: T2, Calcitonin receptor (Homo sapiens, UniProt P30988); format: cell membranes, Membrane; settings: t47d; note: in other assays of this panel Not Active means under 50% inhibition at 10 µM
T2 sequence (P30988 whole entry): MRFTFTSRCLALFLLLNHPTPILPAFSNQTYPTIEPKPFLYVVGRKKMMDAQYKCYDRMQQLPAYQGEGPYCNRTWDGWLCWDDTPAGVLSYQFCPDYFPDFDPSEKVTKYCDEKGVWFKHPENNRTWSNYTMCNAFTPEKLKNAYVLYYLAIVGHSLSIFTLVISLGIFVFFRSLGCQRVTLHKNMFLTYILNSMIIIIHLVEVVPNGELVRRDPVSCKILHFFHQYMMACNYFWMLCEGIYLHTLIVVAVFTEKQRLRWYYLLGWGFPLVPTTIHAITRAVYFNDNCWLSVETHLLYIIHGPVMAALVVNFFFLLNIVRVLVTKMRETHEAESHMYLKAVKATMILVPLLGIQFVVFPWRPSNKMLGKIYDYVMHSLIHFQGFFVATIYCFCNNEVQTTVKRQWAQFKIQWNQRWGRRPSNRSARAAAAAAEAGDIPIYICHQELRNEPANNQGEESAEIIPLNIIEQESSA

[1] = biological target: T3, C-X-C chemokine receptor type 2 (Homo sapiens, UniProt P25025); format: cell membranes, Membrane; settings: cho-k1; note: in other assays of this panel Not Active means under 50% inhibition at 10 µM
T3 sequence (P25025 whole entry): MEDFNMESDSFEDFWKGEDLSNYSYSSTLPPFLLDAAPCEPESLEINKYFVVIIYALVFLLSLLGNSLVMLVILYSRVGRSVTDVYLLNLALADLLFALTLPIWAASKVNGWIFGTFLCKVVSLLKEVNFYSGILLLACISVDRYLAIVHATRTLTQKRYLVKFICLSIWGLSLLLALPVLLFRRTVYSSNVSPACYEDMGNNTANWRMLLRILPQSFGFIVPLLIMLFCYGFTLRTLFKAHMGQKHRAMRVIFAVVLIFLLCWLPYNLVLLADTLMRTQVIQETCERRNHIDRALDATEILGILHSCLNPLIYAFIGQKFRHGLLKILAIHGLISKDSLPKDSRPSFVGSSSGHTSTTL

Leukotriene C4 synthase = biological target: T4, Leukotriene C4 synthase (Cavia porcellus, UniProt A6XA80); format: tissue-based, Lung;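 note: enzyme inhibition assay of leukotriene C4 synthase, using LTA4 as the substrate; in other assays of this panel Not Active means under 50% inhibition at 10 µM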
T4 sequence (A6XA80 whole entry): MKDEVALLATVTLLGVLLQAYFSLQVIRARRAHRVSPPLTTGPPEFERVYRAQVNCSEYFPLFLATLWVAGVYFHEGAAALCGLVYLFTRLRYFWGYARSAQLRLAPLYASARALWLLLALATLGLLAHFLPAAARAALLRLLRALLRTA

[2] = biological target: T5, Muscarinic acetylcholine receptor M2 (Homo sapiens, UniProt P08172); format: cell membranes, CHO-K1, Membrane; note: in other assays of this panel Not Active means under 50% inhibition at 10 µM
T5 sequence (P08172 whole entry): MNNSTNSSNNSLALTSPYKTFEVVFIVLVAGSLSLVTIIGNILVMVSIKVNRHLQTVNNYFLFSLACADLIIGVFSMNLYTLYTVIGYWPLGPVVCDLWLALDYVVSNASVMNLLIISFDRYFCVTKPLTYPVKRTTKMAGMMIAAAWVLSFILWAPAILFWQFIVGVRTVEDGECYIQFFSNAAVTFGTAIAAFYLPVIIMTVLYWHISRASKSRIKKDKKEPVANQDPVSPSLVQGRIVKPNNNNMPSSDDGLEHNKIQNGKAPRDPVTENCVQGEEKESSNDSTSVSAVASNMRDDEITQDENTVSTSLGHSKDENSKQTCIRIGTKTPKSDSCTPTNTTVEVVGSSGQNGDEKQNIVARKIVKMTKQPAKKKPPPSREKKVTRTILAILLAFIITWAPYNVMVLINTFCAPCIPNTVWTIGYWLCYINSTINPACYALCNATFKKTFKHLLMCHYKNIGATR

[3] = DRUGMATRIX: Nicotinic Acetylcholine radioligand binding (ligand: [125I] Epibatidine); format: cell membranes, Membrane; settings: imr-32; Not Active = under 50% inhibition at 10 µM
[4] = biological target: 5-hydroxytryptamine receptor 1B (Rattus norvegicus, UniProt P28564); format: cell membranes, Wistar, Cerebral cortex, Membrane; note: in other assays of this panel Not Active means under 50% inhibition at 10 µM
5-hydroxytryptamine receptor 1B, sequence (P28564 whole entry): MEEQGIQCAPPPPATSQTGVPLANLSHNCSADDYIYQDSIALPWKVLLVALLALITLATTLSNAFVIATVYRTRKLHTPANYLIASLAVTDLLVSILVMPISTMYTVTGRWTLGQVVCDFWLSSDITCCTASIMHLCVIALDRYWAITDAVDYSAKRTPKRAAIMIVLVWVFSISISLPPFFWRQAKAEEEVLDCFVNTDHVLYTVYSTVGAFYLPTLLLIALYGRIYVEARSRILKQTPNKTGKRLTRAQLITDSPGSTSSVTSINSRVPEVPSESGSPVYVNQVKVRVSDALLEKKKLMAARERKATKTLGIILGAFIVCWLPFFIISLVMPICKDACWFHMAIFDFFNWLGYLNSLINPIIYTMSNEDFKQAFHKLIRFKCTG

Row | SMILES | IC50 (B2 bradykinin receptor) | IC50 (Calcitonin receptor) | IC50 [1] | IC50 (Leukotriene C4 synthase) | IC50 ([2]; cho-k1) | IC50 [3] | Ki [3] | IC50 [4] | IC50 ([2]; read-out: IC50) [nM] | Ki ([2]; read-out: Ki) [nM]
1 | Cc1cnc(C(=O)NCCc2ccc(S(=O)(=O)NC(=O)NC3CCCCC3)cc2)cn1 [GLIPIZIDE] | Not Active | Not Active | Not Active | Not Active | Not Active | Not Active | Not Active | Not Active | – | –
2 | CC(C)(Sc1cc(C(C)(C)C)c(O)c(C(C)(C)C)c1)Sc1cc(C(C)(C)C)c(O)c(C(C)(C)C)c1 [PROBUCOL] | Not Active | Not Active | Not Active | Not Active | Not Active | Not Active | Not Active | Not Active | – | –
3 | CC[C@H](C)C(=O)O[C@H]1C[C@@H](C)C=C2C=C[C@H](C)[C@H](CC[C@@H]3C[C@@H](O)CC(=O)O3)[C@H]21 [LOVASTATIN] | Not Active | Not Active | Not Active | Not Active | Not Active | Not Active | Not Active | Not Active | – | –
4 | O=C(c1ccccc1Cl)N1CCC(Cc2ccccc2)CC1 | Not Active | Not Active | Not Active | Not Active | Not Active | Not Active | Not Active | Not Active | – | –
5 | N[C@@H](Cc1ccc(F)cc1)C(=O)O | Not Active | Not Active | Not Active | Not Active | Not Active | Not Active | Not Active | Not Active | – | –
6 | OCCN1CCN(CCCN2c3ccccc3Sc3ccc(Cl)cc32)CC1 [PERPHENAZINE] | Not Active | Not Active | Not Active | Not Active | Not Active | Not Active | Not Active | Not Active | – | –
7 | CC[C@]1(O)CC[C@H]2[C@@H]3CCC4=CCCC[C@@H]4[C@H]3CC[C@@]21C | Not Active | Not Active | Not Active | Not Active | – | Not Active | Not Active | Not Active | 292 | 104
8 | COc1ccc(Cc2nccc3cc(OC)c(OC)cc23)cc1OC [PAPAVERINE] | Not Active | Not Active | Not Active | Not Active | Not Active | Not Active | Not Active | Not Active | – | –
9 | CCOC(=O)C1=C(C)NC(C)=C(C(=O)OC)C1c1cccc(Cl)c1Cl (configuration not stated) [FELODIPINE] | Not Active | Not Active | Not Active | Not Active | Not Active | Not Active | Not Active | Not Active | – | –
10 | C[C@@H]1CC[C@H]2[C@@H](C)C(=O)O[C@@H]3O[C@@]4(C)CC[C@@H]1[C@]32OO4 [ARTEMISININ] | Not Active | Not Active | Not Active | Not Active | Not Active | Not Active | Not Active | Not Active | – | –
11 | CN1C(=O)CN=C(c2ccccc2)c2cc(Cl)ccc21 [DIAZEPAM] | Not Active | Not Active | Not Active | Not Active | Not Active | Not Active | Not Active | Not Active | – | –
12 | O=C(O)Cc1ccc(-c2ccccc2)cc1 [FELBINAC] | Not Active | Not Active | Not Active | Not Active | Not Active | Not Active | Not Active | Not Active | – | –
